Laboratory results from patent publication US20160220602A1, “USE OF CHINESE MEDICINE PREPARATION IN PREPARING DRUG FOR PREVENTING AND/OR TREATING CROHN'S DISEASE” (TASLY PHARMACEUTICAL GROUP CO., LTD., priority 2013, published 2016).

Key:
Type in all cases: in vivo, SD rats
Gln in intestinal mucosa [1] = assay: Gln in intestinal mucosa by ELISA, OXZ model rats; details: 100 mg/kg once per day, 11 days
Protocol: (§1) Grouping: the experiment was carried out by using two ways of intracolonic and intragastric administration. […] There were 10 rats each group. Method for establishing rat model: referring to the Heller method, OXZ was used to induce the SD rat Crohn's disease model (abbreviated as “OXZ model”). Neck and back skin of rats were shaved (2 cm×2 cm). Ethanol was used to prepare 5% (w/v) OXZ solution, and 0.3 ml resultant OXZ solution was dripped on the skin of rats. After the solution was air-dried naturally, skin allergy occurred in rats. The sensitized rats were adaptively raised for 5 days, […] anesthetized by intraperitoneal injection of pentobarbital sodium. […] After completion, the rats were inverted by lifting tails for 60s to make the solution totally absorbed. […] If the rats manifested dark hair color, body weight loss, poor appetite, lassitude, watery stool or diarrhea, the model establishment was success. Administration method: after successful model establishment by OXZ, the drug was given to rats. The TCM preparation k saline solutions at corresponding dose were administered to the groups of preparation k of all doses and the […] saline solution, a positive drug, administrated to the positive control group. […] Serum IFN-γ, IL-4, and Gln in intestinal mucosa were determined by ELISA in rats.

IFN-γ [2] = assay: Serum IFN-γ by ELISA, TNBS model rats; details: 100 mg/kg once per day, 21 days
Protocol: (§2) Grouping: experiment was carried out by using two ways of intracolonic and intragastric administrations. […] There were 10 rats each group. Method for establishing rat model: referring to Morris method, TNBS was used to induce the SD rat Crohn's disease model (abbreviated as “TNBS model”). 24 hours before modeling, the SD rats were fasted but water was given. […] The rats of blank control group were normally fed with free access to water and the same volume of normal saline was given in the same administration routes by referring to the dosage regime of aforementioned treatment groups. The rats of model group were administrated with the same volume of normal saline in the same administration routes. […] (2) Serum indices: after final administration, the testing rats were fasted but given water. 24 hours later, blood was gained from abdominal aorta. Serum IFN-γ, IL-1, IL-4, IL-10 and Gln in intestinal mucosa were determined by enzyme-linked immunosorbent assay (ELISA) in rats.

Gln in intestinal mucosa [3] = assay: Gln in intestinal mucosa by ELISA, TNBS model rats; details: 100 mg/kg once per day, 21 days
Protocol: as §2

IL-10 = assay: Serum IL-10 by ELISA, TNBS model rats; details: 100 mg/kg once per day, 21 days
Protocol: as §2

[4] = system: OXZ-induced SD rat Crohn's disease model; assay: DAI score in oxazolone-caused Crohn's disease rat model; set-up: key: DAI = (weight loss % + stool character + hematochezia scores)/3; details: 100 mg/kg
Protocol: Grouping: the experiment was carried out by using two ways of intracolonic and intragastric administration. […] There were 10 rats each group. Method for establishing rat model: referring to the Heller method, OXZ was used to induce the SD rat Crohn's disease model (abbreviated as “OXZ model”). Neck and back skin of rats were shaved (2 cm×2 cm). Ethanol was used to prepare 5% (w/v) OXZ solution, and 0.3 ml resultant OXZ solution was dripped on the skin of rats. […] The sensitized rats were adaptively raised for 5 days, […] anesthetized by intraperitoneal injection of pentobarbital sodium. […] After completion, the rats were inverted by lifting tails for 60s to make the solution totally absorbed. […] If the rats manifested dark hair color, body weight loss, poor appetite, lassitude, watery stool or diarrhea, the model establishment was success. Administration method: after successful model establishment by OXZ, the drug was given to rats. The TCM preparation k saline solutions at corresponding dose were administered to the groups of preparation k of all doses and the […] saline solution, a positive drug, administrated to the positive control group. The rats of blank control group were normally fed, given with water and the same volume of normal saline was given in the same administration routes by referring to the dosage regime of aforesaid treatment groups. The rats of model group were administrated with the same volume of normal saline in the same administration routes. The dose of each group was as follows: […] group at 100 mg/kg rat weight, the TCM preparation k high-dose group at 2.023 g raw medicine/kg rat weight, the middle-dose group at 1.012 g raw medicine/kg rat weight and the low-dose group at 0.506 g raw medicine/kg rat weight. […] (1) General Indices: weight change and stool (e.g. stool occult blood, bloody stool and diarrhea) were observed every day to calculate DAI score. DAI score=(weight loss percentage+defecate character fraction+hematochezia fraction)/3 [table]

IFN-γ [5] = assay: Serum IFN-γ by ELISA, OXZ model rats; details: 100 mg/kg once per day, 11 days
Protocol: as §1

## Nc1ccc(O)c(C(=O)O)c1 [mesalamine, Mesalamine]
Gln in intestinal mucosa [1]; intracolonic
  Gln in intestinal mucosa (Mean ± SD): 124.06 ± 24.40 µmol/L
Gln in intestinal mucosa [1]; intragastric
  Gln in intestinal mucosa (Mean ± SD): 132.59 ± 41.74 µmol/L
IFN-γ [2]; intracolonic
  IFN-γ serum content (Mean ± SD): 84.51 ± 19.65 pg/mL
IFN-γ [2]; intragastric
  IFN-γ serum content (Mean ± SD): 93.88 ± 23.67 pg/mL
Gln in intestinal mucosa [3]; intracolonic
  Gln in intestinal mucosa (Mean ± SD): 146.36 ± 28.11 µmol/L
Gln in intestinal mucosa [3]; intragastric
  Gln in intestinal mucosa (Mean ± SD): 158.74 ± 41.35 µmol/L
IL-10; intracolonic
  IL-10 serum content (Mean ± SD): 88.06 ± 10.47 pg/mL
IL-10; intragastric
  IL-10 serum content (Mean ± SD): 88.56 ± 16.77 pg/mL
[4]; Table 14: OXZ model rats, intracolonic, 1st day
  DAI score (Mean ± SD): 0.267 ± 0.263
[4]; Table 14: OXZ model rats, intracolonic, 2nd day
  DAI score (Mean ± SD): 0.400 ± 0.378
[4]; Table 14: OXZ model rats, intracolonic, 3rd day
  DAI score (Mean ± SD): 0.300 ± 0.331
[4]; Table 14: OXZ model rats, intracolonic, 4th day
  DAI score (Mean ± SD): 0.333 ± 0.385
[4]; Table 14: OXZ model rats, intracolonic, 5th day
  DAI score (Mean ± SD): 0.800 ± 0.422
[4]; Table 14: OXZ model rats, intracolonic, 7th day
  DAI score (Mean ± SD): 1.700 ± 0.637
[4]; Table 14: OXZ model rats, intracolonic, 8th day
  DAI score (Mean ± SD): 1.500 ± 0.593
[4]; Table 14: OXZ model rats, intracolonic, 9th day
  DAI score (Mean ± SD): 0.733 ± 0.439
[4]; Table 15, as titled: intracolonic, TNBS model rats, 1st day
  DAI score (Mean ± SD): 0.600 ± 0.141
[4]; Table 15, as titled: intracolonic, TNBS model rats, 4th day
  DAI score (Mean ± SD): 0.267 ± 0.211
[4]; Table 15, as titled: intracolonic, TNBS model rats, 5th day
  DAI score (Mean ± SD): 1.000 ± 0.222
[4]; Table 15, as titled: intracolonic, TNBS model rats, 8th day
  DAI score (Mean ± SD): 1.967 ± 0.576
[4]; Table 15, as titled: intracolonic, TNBS model rats, 9th day
  DAI score (Mean ± SD): 1.633 ± 0.429
[4]; Table 15, as titled: intracolonic, TNBS model rats, 10th day
  DAI score (Mean ± SD): 1.267 ± 0.625
[4]; Table 15, as titled: intracolonic, TNBS model rats, 11th day
  DAI score (Mean ± SD): 1.067 ± 0.798
IFN-γ [5]; intracolonic
  IFN-γ serum content (Mean ± SD): 85.85 ± 10.66 pg/mL
IFN-γ [5]; intragastric
  IFN-γ serum content (Mean ± SD): 81.88 ± 18.00 pg/mL
